Test results: ChEMBL document CHEMBL3286199, “Synthesis, in vitro antimicrobial and cytotoxic activities of novel pyrimidine-benzimidazol combinations” (Bioorg Med Chem Lett, 2014)
≈ marks a conversion by molar mass, not a printed value.

Experiments:
Bacillus subtilis = assay: Antimicrobial activity against Bacillus subtilis after 18 to 24 hrs by broth microdilution method; assay type: functional
Escherichia coli = assay: Antimicrobial activity against Escherichia coli after 18 to 24 hrs by broth microdilution method; assay type: functional
Staphylococcus aureus = assay: Antimicrobial activity against Staphylococcus aureus after 18 to 24 hrs by broth microdilution method; assay type: functional
[1] = test system: Stenotrophomonas maltophilia; assay: Antimicrobial activity against Stenotrophomonas maltophilia after 18 to 24 hrs by broth microdilution method; assay type: functional
Candida albicans = assay: Antimicrobial activity against Candida albicans after 48 hrs by broth microdilution method; assay type: functional
[2] = Cytotoxicity against human EC109 cells after 72 hrs by MTT assay; assay type: functional, cell-based; settings: ECa-109, 72 h
PC-3 = assay: Cytotoxicity against human PC3 cells after 72 hrs by MTT assay; assay type: functional, cell-based; settings: PC-3, 72 h
MCF7 = assay: Cytotoxicity against human MCF7 cells after 72 hrs by MTT assay; assay type: functional, cell-based; settings: MCF7, 72 h
MGC-803 = assay: Cytotoxicity against human MGC803 cells after 72 hrs by MTT assay; assay type: functional, cell-based; settings: MGC-803, 72 h

Compound | MIC (Bacillus subtilis) | MIC (Escherichia coli) | MIC (Staphylococcus aureus) | MIC [1] | MIC (Candida albicans) | IC50 [2] | IC50 (PC-3) | IC50 (MCF7) | IC50 (MGC-803)
C[C@H]1COc2c(N3CCN(C)CC3)c(F)cc3c(=O)c(C(=O)O)cn1c23.C[C@H]1COc2c(N3CCN(C)CC3)c(F)cc3c(=O)c(C(=O)O)cn1c23.O [LEVOFLOXACIN] | 0.25 µg/mL | 0.125 µg/mL | 0.5 µg/mL | 0.25 µg/mL |  |  |  |  | 
Cc1cc(NNC(N)=S)nc(SCc2nc3ccccc3[nH]2)n1 | > 128 µg/mL | > 128 µg/mL | > 128 µg/mL | 128 µg/mL (≈ 371 µM) | 128 µg/mL (≈ 371 µM) | > 100 µM | > 100 µM | > 100 µM | > 100 µM
Cc1cc(NC(C)C)nc(SCc2nc3ccccc3[nH]2)n1 | > 128 µg/mL | > 128 µg/mL | > 128 µg/mL | 32 µg/mL (≈ 102 µM) | 128 µg/mL (≈ 408 µM) | > 100 µM | > 100 µM | > 100 µM | > 100 µM
Cc1cc(N2CCCCC2)nc(SCc2nc3ccccc3[nH]2)n1 | > 128 µg/mL | > 128 µg/mL | > 128 µg/mL | 64 µg/mL (≈ 189 µM) | 32 µg/mL (≈ 94.3 µM) | > 100 µM | > 100 µM | > 100 µM | > 100 µM
Cc1cc(Nc2ccc(F)cc2)nc(SCc2nc3ccccc3[nH]2)n1 | 64 µg/mL (≈ 175 µM) | 64 µg/mL (≈ 175 µM) | 32 µg/mL (≈ 87.6 µM) | 32 µg/mL (≈ 87.6 µM) | 8 µg/mL (≈ 21.9 µM) | 69.5 µM | 56.2 µM | 42.2 µM | 5.77 µM
Cc1cc(N(CCO)CCO)nc(SCc2nc3ccccc3[nH]2)n1 | > 128 µg/mL | 64 µg/mL (≈ 178 µM) | > 128 µg/mL | 128 µg/mL (≈ 356 µM) | > 128 µg/mL | > 100 µM | > 100 µM | > 100 µM | > 100 µM
Cc1cc(N(C)Cc2ccccc2)nc(SCc2nc3ccccc3[nH]2)n1 | > 128 µg/mL | > 128 µg/mL | 128 µg/mL (≈ 341 µM) | 16 µg/mL (≈ 42.6 µM) | 128 µg/mL (≈ 341 µM) | > 100 µM | > 100 µM | > 100 µM | 31.3 µM
COc1ccc(Nc2cc(C)nc(SCc3nc4ccccc4[nH]3)n2)cc1 | 32 µg/mL (≈ 84.8 µM) | 128 µg/mL (≈ 339 µM) | 64 µg/mL (≈ 170 µM) | 16 µg/mL (≈ 42.4 µM) | 64 µg/mL (≈ 170 µM) | 69.8 µM | 67.4 µM | 61.1 µM | 51.1 µM
Cc1ccc(Nc2cc(C)nc(SCc3nc4ccccc4[nH]3)n2)cc1 | 64 µg/mL (≈ 177 µM) | 32 µg/mL (≈ 88.5 µM) | 32 µg/mL (≈ 88.5 µM) | 8 µg/mL (≈ 22.1 µM) | 64 µg/mL (≈ 177 µM) | 57.3 µM | 56 µM | 56.5 µM | 7.39 µM
Cc1cc(Nc2ccc(Br)cc2)nc(SCc2nc3ccccc3[nH]2)n1 | 128 µg/mL (≈ 300 µM) | 128 µg/mL (≈ 300 µM) | 16 µg/mL (≈ 37.5 µM) | 4 µg/mL (≈ 9.38 µM) | 8 µg/mL (≈ 18.8 µM) | 42.9 µM | 37.1 µM | 38 µM | 26.8 µM
Cc1cc(N2CCNCC2)nc(SCc2nc3ccccc3[nH]2)n1 | 128 µg/mL (≈ 376 µM) | > 128 µg/mL | > 128 µg/mL | 32 µg/mL (≈ 94 µM) | > 128 µg/mL | > 100 µM | > 100 µM | > 100 µM | > 100 µM
O=c1[nH]cc(F)c(=O)[nH]1 [FLUOROURACIL] |  |  |  |  |  | 24.1 µM | 4.68 µM | 7.76 µM | 8.13 µM
Cc1cc(N2CCOCC2)nc(SCc2nc3ccccc3[nH]2)n1 | > 128 µg/mL | > 128 µg/mL | > 128 µg/mL | 32 µg/mL (≈ 93.7 µM) | > 128 µg/mL | > 100 µM | > 100 µM | > 100 µM | > 100 µM
COc1ccccc1Nc1cc(C)nc(SCc2nc3ccccc3[nH]2)n1 | 32 µg/mL (≈ 84.8 µM) | 32 µg/mL (≈ 84.8 µM) | > 128 µg/mL | 8 µg/mL (≈ 21.2 µM) | 128 µg/mL (≈ 339 µM) | 34.4 µM | 70.8 µM | > 100 µM | 56.2 µM
Cc1cc(Nc2cccc(C(F)(F)F)c2)nc(SCc2nc3ccccc3[nH]2)n1 | > 128 µg/mL | > 128 µg/mL | > 128 µg/mL | 8 µg/mL (≈ 19.3 µM) | > 128 µg/mL | > 100 µM | > 100 µM | > 100 µM | > 100 µM
Cc1cc(NCCO)nc(SCc2nc3ccccc3[nH]2)n1 | > 128 µg/mL | 64 µg/mL (≈ 203 µM) | > 128 µg/mL | 64 µg/mL (≈ 203 µM) | > 128 µg/mL | > 100 µM | > 100 µM | > 100 µM | > 100 µM
Cc1cc(Nc2ccc(Cl)cc2)nc(SCc2nc3ccccc3[nH]2)n1 | 128 µg/mL (≈ 335 µM) | 128 µg/mL (≈ 335 µM) | 8 µg/mL (≈ 20.9 µM) | 2 µg/mL (≈ 5.24 µM) | 64 µg/mL (≈ 168 µM) | 20.4 µM | 36 µM | 33.6 µM | 28.2 µM
OC(Cn1cncn1)(Cn1cncn1)c1ccc(F)cc1F [FLUCONAZOLE] |  |  |  |  | 2 µg/mL (≈ 6.53 µM) |  |  |  | 
